# From article PMC10198977, “Computational design of dynamic receptor—peptide signaling complexes applied to chemotaxis” (Nature Communications, 2023)
# Residues, ends and D or L forms follow the SMILES beside them. No end group written: not given here.
# Columns and labels:
# Type in all cases: cell-based
# [1] = biological target: Cdyn (Homo sapiens, UniProt P61073, L41A/H113N/S178A); test: Gαi BRET of peptides on Cdyn; set-up: Gi BRET (dEC50): unit not given here; conditions: Cdyn receptor; for Gi BRET (dEC50): vs WT:WT
# Method: (§1) Lyophilized peptides were stored at −80 °C and resuspended in assay buffer on the day of the experiment.
# (§2) 40,000 HEK 293T cells were transiently transfected with WT or variant HA3-CXCR4, Gαi1−91-Rluc8, Gβ3-WT, and Gγ9-GFP2 in pcDNA3.1(+) at a ratio of 10:1:10:5 respectively. Cells were first seeded in 100 µL DMEM 10% FBS in a poly-lysine coated, white-walled, white-bottom 96-well plate. Directly after cell loading, 50 µL of the mixture containing Lipofectamine 2000 and the DNA was added on top of the cells. The cells were then left to incubate at 37 °C, 5% CO2, and 95% relative humidity for 20 h, after which, 150 µL media was refreshed. Cells were assayed 48 h post-transfection. Cells were washed with 150 µL PBS, then 40 µL BRET buffer (HBSS, 0.2% Glucose) was added to each well. Coelenterazine 400a was first added at a final concentration of 2.5 µM and BRET ratios were measured once using Mithras[2] LB 943 plate reader. After the first measurement, 40 µL of a 3x concentrated agonist solution was added to each well, and BRET ratios were measured for another 30 min using a Mithras[2] LB 943 plate reader. Mock-transfected controls were subtracted from the data. Maximum values averaged from 3 replicates were then plotted against selected concentrations and fitted to a sigmoidal curve using GraphPad Prism v9.
# [2] = biological target: Csedy (Homo sapiens, UniProt P61073); test: Gαi BRET of peptides on Csedy; conditions: Csedy receptor; for Gi BRET (dEC50): vs WT:WT
# Method: as §1, §2
# [3] = test system: Gαi activation; test: Gαi dissociation BRET of designed receptors with WT CXCL12(1-17) peptide; set-up: Gαi BRET response: scale not given here; conditions: HEK 293T
# Method: as §1, §2
# [4] = test system: Csel2 transduced primary human T cells; test: Boyden chamber migration of T cells transduced with Csel2; set-up: key: migrated cells toward chemokine / migrated cells without chemoattractant; conditions: 100 nM full-length chemokine vs no chemoattractant, peak over 8 h
# Method: (§3) Full-length chemokine purification
# (§4) CXCL12 and variants expressed in pMS211 (pET21a-based) construct and purified as previously described. N-terminal His-tag and leader sequence cleaved with enterokinase to produce a final product with the correct N-terminal sequence. The final lyophilized protein was resuspended at 1 mg/ml in 0.1% BSA. Aliquots were snap frozen and stored at −80 °C.
# (§5) Generation of human T cells expressing CXCR4 WT or variants
# (§6) Peripheral blood mononuclear cells (PBMCs) were isolated from buffy coats by density gradient centrifugation (Lymphoprep, StemCell ref: 07851) and activated on plates coated with anti-CD3 ([…], Biolegend, ref: 317347, clone: OKT3) and anti-CD28 ([…], Biolegend, ref: 302934, clone: CD28.2) antibodies in T cell media (RPMI 10% FBS, 2 mM L-Glutamine, 1% Penicillin-Streptomycin) with IL-15 and IL-7 (Miltenyi Biotec, 10 ng/ml each, ref: 130-095-362 and ref: 130-095-765 respectively). The day before transduction, non-cell tissue culture treated 24-well plate (Greiner Bio-One, ref: 662102) was coated with retronectin (Takara Bio, ref: T100B) in PBS (7 μg/ml, 1 ml per well), and incubated overnight at 4 °C. Three days after activation, retronectin was removed and the plate was blocked with RPMI 10% FBS for 15 min at 37 °C. Then, media was removed and retroviral supernatant was centrifuged at 2000 × g, 1 h, 32 °C on retronectin-coated plates. Retroviral supernatant was gently removed and activated T cell suspension at 0.15 E^6 cells/ml was added, and centrifuged at 1000 × g, 10 min, 21 °C. Cells were incubated at 37 °C, 5% CO2, and 95% relative humidity for 3 days. After 48–72 h of transduction, T cells were harvested and further expanded in T cell media containing IL-7 and IL-15. Transduced T cells were positively selected with a PE selection kit (EasySep, ref: 17684) and an anti-HA PE-conjugated antibody (Biolegend, ref: 901518, clone: 16B12) at a 1:50 dilution to enrich transduced T cells. Enrichment of surface expression in PE-selected cells was confirmed by flow cytometry using a BD FACS LSR II cytometer (BD Biosciences) and analyzed with FlowJo software (BD Biosciences).
# (§7) T cells transduced and selected for expression of CXCR4 variants from 3 to 6 donors were stained with 1 µM Vybrant DiO cell-labeling solution (Thermo, ref: V22886) in serum-free RPMI 1640 + GlutaMax. 40,000 cells in 75 µL were seeded in each well of 96-well Boyden chambers with 5.0 µm pores (Corning, ref: 3388)[44]. Reservoirs were filled with 200 µL serum-free RPMI 1640 + GlutaMax without chemoattractant or supplemented with 100 nM chemokine. The bottom of the attractant reservoir was imaged for migrated cells for 8 h with a Cytation 5 BioSpa (Biotek) at 37 °C with 5% CO2. Fluorescent spots were counted over time and compared to the no-chemoattractant control to calculate the migration index (# migrated cells towards chemoattractant / # migrated cells in absence of chemoattractant). The peak migration indices averaged between 3 technical replicates for each transduced donor per chemoattractant concentration were plotted.
# [5] = test system: Csedy transduced primary human T cells; test: Boyden chamber migration of T cells transduced with Csedy; set-up: key: migrated cells toward chemokine / migrated cells without chemoattractant; conditions: 100 nM full-length chemokine vs no chemoattractant, peak over 8 h
# Method: as §3, §4, §5, §6, §7
# [6] = test system: WT CXCR4 transduced primary human T cells; test: Boyden chamber migration of T cells transduced with WT CXCR4; set-up: key to Migration Index: migrated cells toward chemokine / migrated cells without chemoattractant; conditions: for Migration Index: 100 nM full-length chemokine vs no chemoattractant, peak over 8 h, WT receptor
# Method: as §3, §4, §5, §6, §7
# [7] = test system: Cdyn transduced primary human T cells; test: Boyden chamber migration of T cells transduced with Cdyn; conditions: 100 nM full-length chemokine vs no chemoattractant, peak over 8 h
# Method: as §3, §4, §5, §6, §7
# Sequence of Csedy (P61073 whole entry): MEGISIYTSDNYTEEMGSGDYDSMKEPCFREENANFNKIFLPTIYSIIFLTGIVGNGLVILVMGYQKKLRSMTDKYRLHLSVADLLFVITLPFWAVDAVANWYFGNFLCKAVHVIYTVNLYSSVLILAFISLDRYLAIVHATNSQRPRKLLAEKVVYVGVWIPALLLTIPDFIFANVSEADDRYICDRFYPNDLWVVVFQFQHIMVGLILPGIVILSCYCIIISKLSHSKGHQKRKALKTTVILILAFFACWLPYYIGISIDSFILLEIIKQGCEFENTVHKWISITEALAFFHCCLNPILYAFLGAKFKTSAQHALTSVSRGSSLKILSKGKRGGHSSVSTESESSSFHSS
# Sequence of Cdyn (P61073 whole entry L41A/H113N/S178A): as the sequence (P61073 whole entry) above, with L41A, H113N, S178A counted along it
compound,measurement,setting,value
CC(C)C[C@H](NC(=O)[C@H](CO)NC(=O)[C@H](Cc1ccc(O)cc1)NC(=O)[C@@H]1CCCN1C(=O)[C@@H](N)CCCCN)C(=O)N[C@@H](CO)C(=O)N[C@@H](Cc1ccc(O)cc1)C(=O)N[C@@H](CCCNC(=N)N)C(=O)N[C@@H](CS)C(=O)N1CCC[C@H]1C(=O)N[C@@H](CS)C(=O)N[C@@H](CCCNC(=N)N)C(=O)N[C@@H](Cc1ccccc1)C(=O)N[C@@H](Cc1ccccc1)C(=O)N[C@@H](CCC(=O)O)C(=O)N[C@@H](CO)C(=O)N[C@@H](Cc1c[nH]cn1)C(N)=O [V3Y] (H-KPYSLSYRCPCRFFESH-NH2; N-terminus assumed),enhanced potency,[1]; vs WT receptor–peptide pair,more than 80 -fold
same,Gi BRET (dEC50),[1]; replicate 1,-2.1375
same,Gi BRET (dEC50),[1]; replicate 2,-1.6575
same,Gi BRET (dEC50),[1]; replicate 3,-1.8525
same,Gi BRET (dEC50),[1]; replicate 4,-1.6695
same,Gi BRET (dEC50),[1]; replicate 5,-1.8605
"V3W-Y7L: CXCL12(1-17) peptide variant V3W-Y7L (KPWSLSLRCPCRFFESH-NH2; cysteine pairing not given here; UniProt P48061 22-38, looked up, variant V3W Y7L)","Efficacy, Gi",[2]; mean,135.5 %WT-WT
same,Gi BRET (dEC50),[2]; replicate 1,-1.6525
same,Gi BRET (dEC50),[2]; replicate 2,-2.5125
same,Gi BRET (dEC50),[2]; replicate 3,-1.456
"V3W: CXCL12(1-17) peptide variant V3W (KPWSLSYRCPCRFFESH-NH2; cysteine pairing not given here; UniProt P48061 22-38, looked up, variant V3W)","Efficacy, Gi",[1]; mean,130.6 %WT-WT
same,Gi BRET (dEC50),[1]; replicate 1,-1.8535
same,Gi BRET (dEC50),[1]; replicate 2,-2.0125
same,Gi BRET (dEC50),[1]; replicate 3,-2.163
WT CXCR4: WT CXCR4 with an N-terminal 3xHA-tag,Gαi BRET response,"[3]; log[WT CXCL12(1-17)] -4.17653, replicate 1",84.4534
same,Gαi BRET response,"[3]; log[WT CXCL12(1-17)] -4.17653, replicate 2",83.4696
same,Gαi BRET response,"[3]; log[WT CXCL12(1-17)] -4.65365, replicate 1",62.5022
same,Gαi BRET response,"[3]; log[WT CXCL12(1-17)] -4.65365, replicate 2",62.6195
same,Gαi BRET response,"[3]; log[WT CXCL12(1-17)] -5.13077, replicate 1",35.993
same,Gαi BRET response,"[3]; log[WT CXCL12(1-17)] -5.13077, replicate 2",39.2443
same,Gαi BRET response,"[3]; log[WT CXCL12(1-17)] -5.60789, replicate 1",12.5404
same,Gαi BRET response,"[3]; log[WT CXCL12(1-17)] -5.60789, replicate 2",16.9401
same,Gαi BRET response,"[3]; log[WT CXCL12(1-17)] -6.08501, replicate 1",10.2917
same,Gαi BRET response,"[3]; log[WT CXCL12(1-17)] -6.08501, replicate 2",3.156
same,Gαi BRET response,"[3]; log[WT CXCL12(1-17)] -8, replicate 1",-1.029
same,Gαi BRET response,"[3]; log[WT CXCL12(1-17)] -8, replicate 2",1.036
full-length V3Y-Y7L: full-length chemokine incorporating the designed N-terminal tail V3Y-Y7L,Migration Index,[4]; donor/replicate 1,2.938
same,Migration Index,[4]; donor/replicate 2,2.133
same,Migration Index,[4]; donor/replicate 3,3.389
same,Migration Index,[4]; donor/replicate 4,4.146
same,Migration Index,[4]; donor/replicate 5,3.781
same,Migration Index,[4]; donor/replicate 6,2.587
same,Migration Index,[5]; donor/replicate 1,4.478
same,Migration Index,[5]; donor/replicate 2,3.833
same,Migration Index,[5]; donor/replicate 3,3.752
same,Migration Index,[5]; donor/replicate 4,3.787
same,Migration Index,[6]; donor/replicate 1,2
same,Migration Index,[6]; donor/replicate 2,2.852
same,Migration Index,[6]; donor/replicate 3,2.992
full-length V3Y: full-length chemokine incorporating the designed N-terminal tail V3Y,Migration Index,[6]; donor/replicate 1,2.294
same,Migration Index,[6]; donor/replicate 2,2.226
same,Migration Index,[6]; donor/replicate 3,3.315
same,Migration Index,[6]; donor/replicate 4,2.878
same,Migration Index,[6]; donor/replicate 5,1.825
same,Migration Index,[7]; donor/replicate 1,4.176
same,Migration Index,[7]; donor/replicate 2,5.188
same,Migration Index,[7]; donor/replicate 3,4.028
full-length WT: full-length WT CXCL12 chemokine [reference compound],Migration Index,[4]; donor/replicate 1,3.533
same,Migration Index,[4]; donor/replicate 2,2.962
same,Migration Index,[4]; donor/replicate 3,2.156
same,Migration Index,[4]; donor/replicate 4,3.087
same,Migration Index,[4]; donor/replicate 5,2.058
same,Migration Index,[5]; donor/replicate 1,4.556
same,Migration Index,[5]; donor/replicate 2,4.556
same,Migration Index,[5]; donor/replicate 3,4.738
same,Migration Index,[5]; donor/replicate 4,4.774
same,enhanced migration,"[6]; 100 nM WT CXCL12, vs no-attractant controls, WT CXCR4",around 1.5 -fold
same,Migration Index,[6]; donor/replicate 1,1.882
same,Migration Index,[6]; donor/replicate 2,1.899
same,Migration Index,[6]; donor/replicate 3,1.407
same,Migration Index,[6]; donor/replicate 4,0.96
same,Migration Index,[7]; donor/replicate 1,3.5
same,Migration Index,[7]; donor/replicate 2,2.758
same,Migration Index,[7]; donor/replicate 3,2.302
